Data set [1] in a line: Cell viability/toxicity by the MTT method. The conditions noted are these: human, effect of the compound per se on AREc332 cells. It is filed as cell-based. The text has this:
(§1) Based on the results obtained (Table 2), Compound 1 was selected for further in vitro and in vivo studies as it was endowed with the best anti-neuroinflammatory activity. Table 2: Comparative in vitro results. Cell viability/toxicity: effect of the compound per se on cell viability of […] cells measured with the MTT method. Anti-neuroinflammatory effect: % Reduction of nitrites in primary rat glial cultures. PAMPA-BBB: In vitro blood-brain barrier permeation assay, permeation rate Pe (10-6 cm.s-1). NRF2, CD (µM): Concentration of compound that doubles de activation of NRF2. ORAC: Oxygen radical absorbance capacity. LOX-5: lipoxygenase-5.

The test system of data set [2] is primary rat glial cultures. Kind of data set: Anti-neuroinflammatory screening in LPS-treated primary glial cultures (Griess, normalized by MTT). It is filed as cell-based. The conditions noted are these: % reduction of nitrites, LPS alone = 100 % inflammation, read-out: Anti-neuro inflammatory effect at 3 µM (%). The method, then: Screening for anti-inflammatory properties in primary rat glial cultures was performed according to the protocol described previously [Gameiro, Isabel et al. "Discovery of the first dual GSK3β inhibitor/Nrf2 inducer. A new multitarget therapeutic strategy for Alzheimer's disease." Scientific reports vol. 7 45701. 31 Mar. 2017, doi:10.1038/srep45701]. All compounds were evaluated at the single concentration of 3 µM. Neuroinflammation was quantified as the value of released […], measured by the Griess method, normalized by the number of viable cells measured by the MTT method [Mosmann, T. "Rapid colorimetric assay for cellular growth and survival: application to proliferation and cytotoxicity assays." Journal of immunological methods vol. 65, 1-2 (1983): 55-63. doi:10.1016/0022-1759(83)90303-4]. LPS alone was considered 100 % inflammation.
as §1

Data set [3] in a line: In vitro blood-brain barrier permeation assay (PAMPA-BBB). It is filed as in vitro ADME. The settings on record: for Papp: PAMPA, permeation rate, mean ± SD, read-out: PAMPA-BBB Pe. The text has this: The in vitro blood-brain barrier permeation assay (PAMPA-BBB) was used for predicting the brain penetration of compounds, following a described method [Herrera-Arozamena, Clara et al. "Resveratrol-Based MTDLs to Stimulate Defensive and Regenerative Pathways and Block Early Events in Neurodegenerative Cascades." Journal of medicinal chemistry vol. 65,6 (2022): 4727-4751. doi:10.1021/acs.jmedchem.1c01883]. The results are given as the mean ± SD. In each experiment, 11 quality control standards of known BBB permeability were included to validate the analysis set.

Another data set has as its system NRF2. Kind of data set: NRF2 induction, luciferase activity in AREc32 cells. It is filed as cell-based. The conditions noted are these: concentration that doubles the activation of NRF2, read-out: NRF2 CD.
Source text: Screening of NRF2 induction was quantified by luciferase activity in AREc32 cells as described in [Herrera-Arozamena, Clara et al. "Tuning melatonin receptor subtype selectivity in oxadiazolone-based analogues: Discovery of QR2 ligands and NRF2 activators with neurogenic properties." European journal of medicinal chemistry vol. 190 (2020): 112090. doi:10.1016/j.ejmech.2020.112090].
as §1

A short description of data set [4]: Oxygen Radical Absorbance Capacity Assay (ORAC). It is filed as physicochemical. The settings on record: ORAC > 1.0 is a better ROS scavenger than trolox. The method, then:
The Oxygen Radical Absorbance Capacity Assay (ORAC) was performed as described [Herrera-Arozamena, Clara et al. "Resveratrol-Based MTDLs to Stimulate Defensive and Regenerative Pathways and Block Early Events in Neurodegenerative Cascades." Journal of medicinal chemistry vol. 65,6 (2022): 4727-4751. doi:10.1021/acs.jmedchem.1c01883].

The target of data set [5] is T1, human lipoxygenase-5 (hLOX-5) (Homo sapiens, UniProt P09917).
T1 sequence (P09917 1-674): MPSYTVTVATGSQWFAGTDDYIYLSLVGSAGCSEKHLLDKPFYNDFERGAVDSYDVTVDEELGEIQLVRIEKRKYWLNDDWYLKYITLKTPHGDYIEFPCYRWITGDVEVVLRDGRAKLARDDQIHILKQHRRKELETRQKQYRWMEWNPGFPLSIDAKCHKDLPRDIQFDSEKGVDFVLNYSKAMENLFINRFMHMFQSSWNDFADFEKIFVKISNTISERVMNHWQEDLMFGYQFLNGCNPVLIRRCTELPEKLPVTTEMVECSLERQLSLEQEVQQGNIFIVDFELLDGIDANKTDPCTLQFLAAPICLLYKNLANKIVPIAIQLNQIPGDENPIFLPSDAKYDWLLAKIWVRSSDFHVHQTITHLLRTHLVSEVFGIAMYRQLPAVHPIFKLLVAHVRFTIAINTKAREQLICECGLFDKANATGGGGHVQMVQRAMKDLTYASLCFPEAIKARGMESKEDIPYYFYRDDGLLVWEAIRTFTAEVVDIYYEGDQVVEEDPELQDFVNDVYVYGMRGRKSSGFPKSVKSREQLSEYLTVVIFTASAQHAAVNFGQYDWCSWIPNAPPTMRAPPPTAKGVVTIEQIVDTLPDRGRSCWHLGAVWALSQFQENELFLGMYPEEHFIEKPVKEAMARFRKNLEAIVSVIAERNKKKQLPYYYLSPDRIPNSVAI
Kind of data set: Inhibition of human lipoxygenase-5. It is filed as biochemical. The conditions noted are these: mean ± SD of three independent experiments in triplicate; read-out: LOX5 IC50. The method, then: The inhibition of human lipoxygenase-5 (hLOX-5) was performed as described [Herrera-Arozamena, Clara et al. "Tuning melatonin receptor subtype selectivity in oxadiazolone-based analogues: Discovery of QR2 ligands and NRF2 activators with neurogenic properties." European journal of medicinal chemistry vol. 190 (2020): 112090. doi:10.1016/j.ejmech.2020.112090], Data are the mean ± SD of three independent experiments performed in triplicate.

Bounds are passed on as bounds.

Take `c1ccc2c(c1)CC(c1c[nH]c3ccccc13)N2` (stereo not shown) [Compound 3, 3-(Indolin-2-yl)-1H-indole]: the CC50 in data set [1] is > 30 µM. The inhibition at 3 µM in data set [2] turned out to be 24.4 ± 6.7%. Further, in data set [3], the “PAMPA-BBB predicted brain penetration” value is “cns+” and the Papp is 11.5 ± 0.8 ×10⁻⁶ cm/s. The EC (2-fold activation) in the data set on NRF2 stood at 0.0713 ± 0.031 µM. Further, the “ORAC (trolox equiv.)” value in data set [4] is 1.9 ± 0.1 trolox equiv. The IC50 in data set [5] stood at 2.89 ± 0.44 µM.
`Clc1ccc2[nH]c(-c3c[nH]c4ccc(Cl)cc34)cc2c1` [Compound 5, 5,5'-Dichloro-1H,1'H-2,3'-biindole]: the CC50 in data set [1] was > 30 µM. Further, the inhibition at 3 µM in data set [2] was found to be 30 ± 10%. Further, in data set [3], the “PAMPA-BBB predicted brain penetration” value is given as “cns+” and the Papp came to 10.9 ± 0.7 ×10⁻⁶ cm/s. Further, in the data set on NRF2, the EC (2-fold activation) was found to be 2.57 ± 0.68 µM. The “ORAC (trolox equiv.)” value in data set [4] stood at 0.5 ± 0.1 trolox equiv. For the same molecule, in data set [5], the IC50 was > 100 µM.
With `C#CCN1c2ccc(OC)cc2CC1c1cn(CC#C)c2ccc(OC)cc12` (stereo not shown) [Compound 8, 5-Methoxy-3-(5-methoxy-1-(prop-2-yn-1-yl)indolin-2-yl)-1-(prop-2-yn-1-yl)-1H-indole], the CC50 in data set [1] was > 30 µM. Moreover, in data set [2], the inhibition at 3 µM amounted to 37 ± 11%. Further, in data set [3], the “PAMPA-BBB predicted brain penetration” value is on record as “cns+” and the Papp was 8.3 ± 0.3 ×10⁻⁶ cm/s. For the same molecule, the EC (2-fold activation) in the data set on NRF2 worked out at 10.7 ± 1.3 µM. In data set [4], the “ORAC (trolox equiv.)” value came to 1.3 ± 0.1 trolox equiv. In addition, the IC50 in data set [5] came out at 0.53 ± 0.02 µM.
With `FC(F)(F)c1ccc2c(c1)CC(c1c[nH]c3ccc(C(F)(F)F)cc13)N2` (stereo not shown) [Compound 7, 5-(Trifluoromethyl)-3-(5-(trifluoromethyl)indolin-2-yl)-1H-indole], the CC50 in data set [1] was 10 to 30 µM. The inhibition at 3 µM in data set [2] was 45 ± 7.1%. For the same molecule, in data set [3], the “PAMPA-BBB predicted brain penetration” value was “cns+” and the Papp was found to be 18.1 ± 0.9 ×10⁻⁶ cm/s. Also, the EC (2-fold activation) in the data set with NRF2 is > 30 µM. In data set [4], the “ORAC (trolox equiv.)” value is 1.3 ± 0.1 trolox equiv. For the same molecule, the IC50 in data set [5] is 6.63 ± 0.21 µM.
On to `COc1cccc2c1NC(c1c[nH]c3c(OC)cccc13)C2` (stereo not shown) [Compound 6, 7-Methoxy-3-(7-methoxyindolin-2-yl)-1H-indole], for which the CC50 in data set [1] was > 30 µM. The inhibition at 3 µM in data set [2] stood at 45 ± 8.7%. Besides, in data set [3], the “PAMPA-BBB predicted brain penetration” value is “cns+” and the Papp is 18.5 ± 0.8 ×10⁻⁶ cm/s. Moreover, the EC (2-fold activation) in the data set on NRF2 was 3.27 ± 0.25 µM. Moreover, in data set [4], the “ORAC (trolox equiv.)” value stood at 1.0 ± 0.1 trolox equiv. Moreover, the IC50 in data set [5] is > 100 µM.
`COc1ccc2[nH]c(-c3c[nH]c4ccc(OC)cc34)cc2c1` [Compound 2, 5,5'-Dimethoxy-1H,1'H-2,3'-biindole] yielded a CC50 in data set [1] of 3 to 10 µM. Besides, the inhibition at 3 µM in data set [2] stood at 33.2 ± 11.8%. Also, in data set [3], the “PAMPA-BBB predicted brain penetration” value is reported as “cns+” and the Papp is 8.7 ± 0.6 ×10⁻⁶ cm/s. Besides, the EC (2-fold activation) in the data set on NRF2 was 0.329 ± 0.017 µM. Also, in data set [4], the “ORAC (trolox equiv.)” value turned out to be 1.5 ± 0.2 trolox equiv. The IC50 in data set [5] amounted to 0.42 ± 0.03 µM.
Take `Clc1ccc2c(c1)CC(c1c[nH]c3ccc(Cl)cc13)N2` (stereo not shown) [Compound 4, 5-Chloro-3-(5-chloroindolin-2-yl)-1H-indole]: the CC50 in data set [1] was in the range of 10 to 30 µM. In addition, the inhibition at 3 µM in data set [2] stood at 29.6 ± 9.4%. In data set [3], the “PAMPA-BBB predicted brain penetration” value was “cns+” and the Papp came out at 5.2 ± 0.4 ×10⁻⁶ cm/s. Also, the EC (2-fold activation) in the data set on NRF2 was determined as 2.04 ± 0.2 µM. For the same molecule, in data set [4], the “ORAC (trolox equiv.)” value was determined as 1.6 ± 0.2 trolox equiv. In addition, the IC50 in data set [5] was 4.57 ± 0.25 µM.
